According to ChEMBL document CHEMBL1201862, “PubChem BioAssay data set” (2004):
Values joined by “and” are separate entries in the source; they are usually repeats but may differ in a detail not shown here. Identical values can stand only once. Active and inactive are the calls of the source.

How the values were obtained:
[1] = THP-1 cell cytotoxicity, dose response, cytotoxicity control for non-replicating M. tuberculosis project (AID 489025); type: functional
[2] = cells; type: functional
[3] = target: T1, Coagulation factor XII (Homo sapiens, UniProt P00748); type: functional;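 note: activated factor XIIa alpha cleaving a fluorogenic AMC peptide substrate; inhibitor potency from loss of enzyme activity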
T1 sequence (P00748 whole entry): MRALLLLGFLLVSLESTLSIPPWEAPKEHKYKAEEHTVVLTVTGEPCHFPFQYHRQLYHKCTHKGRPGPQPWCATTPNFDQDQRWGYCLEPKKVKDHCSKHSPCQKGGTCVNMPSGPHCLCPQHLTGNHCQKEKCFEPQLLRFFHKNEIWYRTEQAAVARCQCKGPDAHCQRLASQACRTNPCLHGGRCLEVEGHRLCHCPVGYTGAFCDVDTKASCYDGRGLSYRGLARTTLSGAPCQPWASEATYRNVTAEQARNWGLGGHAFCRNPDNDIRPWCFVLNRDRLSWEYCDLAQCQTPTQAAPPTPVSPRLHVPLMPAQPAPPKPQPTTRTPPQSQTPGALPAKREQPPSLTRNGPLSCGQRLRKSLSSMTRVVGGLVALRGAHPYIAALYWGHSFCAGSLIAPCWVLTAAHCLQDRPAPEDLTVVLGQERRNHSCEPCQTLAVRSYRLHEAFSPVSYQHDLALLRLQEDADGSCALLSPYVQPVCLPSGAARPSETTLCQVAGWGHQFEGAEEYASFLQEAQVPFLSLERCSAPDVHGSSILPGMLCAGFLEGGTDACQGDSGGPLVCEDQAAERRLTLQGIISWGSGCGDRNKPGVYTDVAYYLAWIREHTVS

[4] = target: T2, Voltage-gated N-type calcium channel alpha-1B subunit/Amyloid beta A4 precursor protein-binding family A member 1 (Homo sapiens, UniProt Q00975+Q02410); type: protein assay
[5] = target: T2, Voltage-gated N-type calcium channel alpha-1B subunit/Amyloid beta A4 precursor protein-binding family A member 1; type: protein assay; remark: listed apart in the source
[6] = target: DNA dC->dU-editing enzyme APOBEC-3A (Homo sapiens, UniProt P31941); experiment: Dose Response confirmation of small molecule APOBEC3A DNA Deaminase Inhibitors via a fluorescence-based single-stranded DNA deaminase assay. [Related pubchem assays (depositor defined):AID493011, AID493024]; type: functional
[7] = target: DNA dC->dU-editing enzyme APOBEC-3G (Homo sapiens, UniProt Q9HC16); type: functional;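 note: Dose-response counterscreen measuring inhibition of APOBEC3G DNA deaminase activity, run while confirming APOBEC3A inhibitors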
[8] = target: T3, Hexokinase (Trypanosoma brucei, UniProt Q38C41); experiment: Confirmation assay for inhibitors of Trypanosoma brucei hexokinase 1-Analogue-first series. [Related pubchem assays (depositor defined):AID1430, AID1632, AID2516, AID2560, AID2579, AID2600, AID449725, AID492951]; type: functional
T3 sequence (Q38C41 whole entry): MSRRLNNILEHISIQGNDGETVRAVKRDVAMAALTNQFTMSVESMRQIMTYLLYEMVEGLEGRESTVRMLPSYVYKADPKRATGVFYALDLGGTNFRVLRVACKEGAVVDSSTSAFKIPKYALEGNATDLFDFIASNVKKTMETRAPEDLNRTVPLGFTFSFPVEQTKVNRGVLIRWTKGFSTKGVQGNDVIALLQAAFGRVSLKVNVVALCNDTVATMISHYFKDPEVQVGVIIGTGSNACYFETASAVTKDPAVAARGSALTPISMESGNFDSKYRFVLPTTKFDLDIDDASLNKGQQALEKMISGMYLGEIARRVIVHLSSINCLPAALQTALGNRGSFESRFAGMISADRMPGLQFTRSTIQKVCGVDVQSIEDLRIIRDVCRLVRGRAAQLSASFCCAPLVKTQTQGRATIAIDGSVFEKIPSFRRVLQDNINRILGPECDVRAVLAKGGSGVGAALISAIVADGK

[9] = target: T4, Aminopeptidase N (Plasmodium falciparum FcB1/Columbia, UniProt O96935); experiment: P. falciparum M1AAP inhibitors, biochemical, fluorogenic H-Leu-NHMec substrate, 1536-well (AID 1445); parameters: species or system Plasmodium falciparum 3D7, 3D7
T4 sequence (O96935 whole entry): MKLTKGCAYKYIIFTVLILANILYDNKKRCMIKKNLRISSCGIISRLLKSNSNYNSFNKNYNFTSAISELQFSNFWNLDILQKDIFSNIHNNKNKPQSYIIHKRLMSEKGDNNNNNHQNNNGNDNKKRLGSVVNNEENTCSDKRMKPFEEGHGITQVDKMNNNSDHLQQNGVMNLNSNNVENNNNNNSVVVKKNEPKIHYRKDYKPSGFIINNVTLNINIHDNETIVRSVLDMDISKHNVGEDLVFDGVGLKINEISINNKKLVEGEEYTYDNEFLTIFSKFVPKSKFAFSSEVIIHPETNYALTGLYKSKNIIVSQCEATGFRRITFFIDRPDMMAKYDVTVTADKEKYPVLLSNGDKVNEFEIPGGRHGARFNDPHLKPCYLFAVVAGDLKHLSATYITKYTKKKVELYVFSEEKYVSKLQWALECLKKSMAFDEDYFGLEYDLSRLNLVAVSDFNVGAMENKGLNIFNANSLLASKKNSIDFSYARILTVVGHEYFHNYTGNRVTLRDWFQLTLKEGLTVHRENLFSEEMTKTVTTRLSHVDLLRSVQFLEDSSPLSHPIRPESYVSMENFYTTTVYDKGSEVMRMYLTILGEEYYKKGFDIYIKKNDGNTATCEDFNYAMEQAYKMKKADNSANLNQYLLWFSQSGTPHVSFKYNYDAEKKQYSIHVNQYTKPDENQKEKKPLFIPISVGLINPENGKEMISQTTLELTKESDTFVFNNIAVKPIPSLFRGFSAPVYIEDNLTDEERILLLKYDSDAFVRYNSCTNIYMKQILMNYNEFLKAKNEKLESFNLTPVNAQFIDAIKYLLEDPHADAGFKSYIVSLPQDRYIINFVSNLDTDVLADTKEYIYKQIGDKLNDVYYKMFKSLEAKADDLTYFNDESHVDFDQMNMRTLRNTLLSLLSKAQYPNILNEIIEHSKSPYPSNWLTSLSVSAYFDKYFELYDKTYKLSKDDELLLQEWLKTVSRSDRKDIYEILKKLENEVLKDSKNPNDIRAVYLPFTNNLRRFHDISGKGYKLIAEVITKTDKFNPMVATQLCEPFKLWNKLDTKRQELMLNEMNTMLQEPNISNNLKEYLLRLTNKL

[10] = target: Alkaline phosphatase, placental type (Homo sapiens, UniProt P05187); experiment: PLAP enzyme inhibitors, confirmation, biochemical, luminescence (AID 1512); type: functional
[11] = target: T5, Alkaline phosphatase, tissue-nonspecific isozyme (Homo sapiens, UniProt P05186); experiment: human TNAP enzyme inhibitors, SAR follow-up, biochemical, luminescent, dose response (AID 1056)
T5 sequence (P05186 whole entry): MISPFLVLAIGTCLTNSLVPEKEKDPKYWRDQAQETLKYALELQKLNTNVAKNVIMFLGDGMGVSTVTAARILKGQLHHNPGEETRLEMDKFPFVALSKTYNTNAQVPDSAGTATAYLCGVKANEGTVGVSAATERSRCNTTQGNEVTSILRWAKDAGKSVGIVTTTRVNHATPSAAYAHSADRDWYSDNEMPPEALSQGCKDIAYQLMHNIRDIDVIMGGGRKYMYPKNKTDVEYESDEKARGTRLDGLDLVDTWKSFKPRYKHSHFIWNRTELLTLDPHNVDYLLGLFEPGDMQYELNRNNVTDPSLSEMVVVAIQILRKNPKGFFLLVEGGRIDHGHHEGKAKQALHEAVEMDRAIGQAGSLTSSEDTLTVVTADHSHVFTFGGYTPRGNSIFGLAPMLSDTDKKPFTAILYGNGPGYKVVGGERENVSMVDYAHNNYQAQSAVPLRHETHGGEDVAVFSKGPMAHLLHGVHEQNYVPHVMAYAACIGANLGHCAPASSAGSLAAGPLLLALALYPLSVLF

[12] = target: T6, Mannose-6-phosphate isomerase (Homo sapiens, UniProt P34949); experiment: PMI enzyme inhibitors, confirmation, biochemical, fluorescence intensity (AID 1535)
T6 sequence (P34949 whole entry): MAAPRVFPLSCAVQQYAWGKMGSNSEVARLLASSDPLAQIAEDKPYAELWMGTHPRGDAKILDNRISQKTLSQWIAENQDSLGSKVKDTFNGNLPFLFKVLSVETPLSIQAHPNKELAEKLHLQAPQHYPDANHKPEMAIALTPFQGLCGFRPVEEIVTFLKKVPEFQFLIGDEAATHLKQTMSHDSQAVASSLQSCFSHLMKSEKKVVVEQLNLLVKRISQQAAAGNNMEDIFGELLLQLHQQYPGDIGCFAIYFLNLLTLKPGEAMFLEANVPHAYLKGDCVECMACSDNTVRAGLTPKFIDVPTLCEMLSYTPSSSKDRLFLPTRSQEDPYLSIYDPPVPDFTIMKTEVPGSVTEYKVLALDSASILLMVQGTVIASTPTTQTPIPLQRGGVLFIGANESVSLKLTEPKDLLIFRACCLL

[13] = target: T7, Phosphomannomutase 2 (Homo sapiens, UniProt O15305); experiment: Counter screen SAR assay for PMM2 inhibitors via a fluorescence intensity assay. [Related pubchem assays (depositor defined):AID1545, AID1574]
T7 sequence (O15305 whole entry): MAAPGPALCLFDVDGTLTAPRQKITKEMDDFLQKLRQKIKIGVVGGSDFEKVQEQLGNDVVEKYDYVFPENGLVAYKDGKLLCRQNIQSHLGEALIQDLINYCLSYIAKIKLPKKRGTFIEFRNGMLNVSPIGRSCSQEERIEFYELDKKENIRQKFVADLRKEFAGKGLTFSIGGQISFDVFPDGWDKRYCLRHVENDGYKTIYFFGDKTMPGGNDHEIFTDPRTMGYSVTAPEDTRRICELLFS

[14] = target: Troponin, cardiac muscle (Homo sapiens, UniProt P19429+P45379+P63316); experiment: Fluorescence-based biochemical high throughput dose response assay for activators of the calcium sensitivity of cardiac Regulated Thin Filaments (RTF). [Related pubchem assays (depositor defined):AID493008, AID493018, AID504382, AID504383]; type: protein-complex assay
[15] = cytotoxicity in HEK-293T cells, dose response, cytotoxicity control for BCR NF-kB inhibitor project, luminescence, B-cell screen hits (AID 489021); type: functional, cell-based;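 note: HEK-293T cells carrying an NF-kB luciferase reporter; cells exposed to compound for about 14 hours before viability readout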
[16] = target: Glucose-6-phosphate 1-dehydrogenase (Homo sapiens, UniProt P11413); experiment: human G6PD enzyme inhibitors, dose response, selectivity assay for P. falciparum G6PD inhibitor project, biochemical, fluorescence (AID 504792); type: functional
[17] = target: Cytochrome P450 3A4 (Homo sapiens, UniProt P08684); settings: Potency;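 note: confirmatory qHTS run detecting inhibitors and substrates of CYP3A4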
[18] = target: Large T antigen (Simian virus 40, UniProt P03070); type: functional, Betapolyomavirus macacae;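 note: Confirmatory-stage PubChem screen for compounds that inhibit SV40 T antigen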
Chain of Large T antigen (P03070 whole entry): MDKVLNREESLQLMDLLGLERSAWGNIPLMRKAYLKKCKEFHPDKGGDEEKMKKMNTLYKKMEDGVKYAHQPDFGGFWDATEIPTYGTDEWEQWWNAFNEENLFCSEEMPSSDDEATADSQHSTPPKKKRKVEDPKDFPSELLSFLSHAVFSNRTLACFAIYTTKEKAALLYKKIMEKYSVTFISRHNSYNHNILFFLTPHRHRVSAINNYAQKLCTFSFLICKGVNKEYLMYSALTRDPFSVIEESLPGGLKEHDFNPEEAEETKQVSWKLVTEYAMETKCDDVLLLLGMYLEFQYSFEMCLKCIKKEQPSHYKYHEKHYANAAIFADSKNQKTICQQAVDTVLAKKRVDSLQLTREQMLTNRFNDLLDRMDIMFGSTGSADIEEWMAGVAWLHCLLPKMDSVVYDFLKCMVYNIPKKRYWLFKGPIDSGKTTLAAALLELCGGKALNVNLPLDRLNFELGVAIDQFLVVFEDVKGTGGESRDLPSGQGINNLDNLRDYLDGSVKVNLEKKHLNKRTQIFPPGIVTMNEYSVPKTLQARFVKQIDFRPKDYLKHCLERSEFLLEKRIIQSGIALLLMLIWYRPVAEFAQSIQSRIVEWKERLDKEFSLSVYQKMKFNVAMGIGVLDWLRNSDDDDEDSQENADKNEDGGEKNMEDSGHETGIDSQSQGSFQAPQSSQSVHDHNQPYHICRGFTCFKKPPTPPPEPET

T2 sequence (Q00975 whole entry): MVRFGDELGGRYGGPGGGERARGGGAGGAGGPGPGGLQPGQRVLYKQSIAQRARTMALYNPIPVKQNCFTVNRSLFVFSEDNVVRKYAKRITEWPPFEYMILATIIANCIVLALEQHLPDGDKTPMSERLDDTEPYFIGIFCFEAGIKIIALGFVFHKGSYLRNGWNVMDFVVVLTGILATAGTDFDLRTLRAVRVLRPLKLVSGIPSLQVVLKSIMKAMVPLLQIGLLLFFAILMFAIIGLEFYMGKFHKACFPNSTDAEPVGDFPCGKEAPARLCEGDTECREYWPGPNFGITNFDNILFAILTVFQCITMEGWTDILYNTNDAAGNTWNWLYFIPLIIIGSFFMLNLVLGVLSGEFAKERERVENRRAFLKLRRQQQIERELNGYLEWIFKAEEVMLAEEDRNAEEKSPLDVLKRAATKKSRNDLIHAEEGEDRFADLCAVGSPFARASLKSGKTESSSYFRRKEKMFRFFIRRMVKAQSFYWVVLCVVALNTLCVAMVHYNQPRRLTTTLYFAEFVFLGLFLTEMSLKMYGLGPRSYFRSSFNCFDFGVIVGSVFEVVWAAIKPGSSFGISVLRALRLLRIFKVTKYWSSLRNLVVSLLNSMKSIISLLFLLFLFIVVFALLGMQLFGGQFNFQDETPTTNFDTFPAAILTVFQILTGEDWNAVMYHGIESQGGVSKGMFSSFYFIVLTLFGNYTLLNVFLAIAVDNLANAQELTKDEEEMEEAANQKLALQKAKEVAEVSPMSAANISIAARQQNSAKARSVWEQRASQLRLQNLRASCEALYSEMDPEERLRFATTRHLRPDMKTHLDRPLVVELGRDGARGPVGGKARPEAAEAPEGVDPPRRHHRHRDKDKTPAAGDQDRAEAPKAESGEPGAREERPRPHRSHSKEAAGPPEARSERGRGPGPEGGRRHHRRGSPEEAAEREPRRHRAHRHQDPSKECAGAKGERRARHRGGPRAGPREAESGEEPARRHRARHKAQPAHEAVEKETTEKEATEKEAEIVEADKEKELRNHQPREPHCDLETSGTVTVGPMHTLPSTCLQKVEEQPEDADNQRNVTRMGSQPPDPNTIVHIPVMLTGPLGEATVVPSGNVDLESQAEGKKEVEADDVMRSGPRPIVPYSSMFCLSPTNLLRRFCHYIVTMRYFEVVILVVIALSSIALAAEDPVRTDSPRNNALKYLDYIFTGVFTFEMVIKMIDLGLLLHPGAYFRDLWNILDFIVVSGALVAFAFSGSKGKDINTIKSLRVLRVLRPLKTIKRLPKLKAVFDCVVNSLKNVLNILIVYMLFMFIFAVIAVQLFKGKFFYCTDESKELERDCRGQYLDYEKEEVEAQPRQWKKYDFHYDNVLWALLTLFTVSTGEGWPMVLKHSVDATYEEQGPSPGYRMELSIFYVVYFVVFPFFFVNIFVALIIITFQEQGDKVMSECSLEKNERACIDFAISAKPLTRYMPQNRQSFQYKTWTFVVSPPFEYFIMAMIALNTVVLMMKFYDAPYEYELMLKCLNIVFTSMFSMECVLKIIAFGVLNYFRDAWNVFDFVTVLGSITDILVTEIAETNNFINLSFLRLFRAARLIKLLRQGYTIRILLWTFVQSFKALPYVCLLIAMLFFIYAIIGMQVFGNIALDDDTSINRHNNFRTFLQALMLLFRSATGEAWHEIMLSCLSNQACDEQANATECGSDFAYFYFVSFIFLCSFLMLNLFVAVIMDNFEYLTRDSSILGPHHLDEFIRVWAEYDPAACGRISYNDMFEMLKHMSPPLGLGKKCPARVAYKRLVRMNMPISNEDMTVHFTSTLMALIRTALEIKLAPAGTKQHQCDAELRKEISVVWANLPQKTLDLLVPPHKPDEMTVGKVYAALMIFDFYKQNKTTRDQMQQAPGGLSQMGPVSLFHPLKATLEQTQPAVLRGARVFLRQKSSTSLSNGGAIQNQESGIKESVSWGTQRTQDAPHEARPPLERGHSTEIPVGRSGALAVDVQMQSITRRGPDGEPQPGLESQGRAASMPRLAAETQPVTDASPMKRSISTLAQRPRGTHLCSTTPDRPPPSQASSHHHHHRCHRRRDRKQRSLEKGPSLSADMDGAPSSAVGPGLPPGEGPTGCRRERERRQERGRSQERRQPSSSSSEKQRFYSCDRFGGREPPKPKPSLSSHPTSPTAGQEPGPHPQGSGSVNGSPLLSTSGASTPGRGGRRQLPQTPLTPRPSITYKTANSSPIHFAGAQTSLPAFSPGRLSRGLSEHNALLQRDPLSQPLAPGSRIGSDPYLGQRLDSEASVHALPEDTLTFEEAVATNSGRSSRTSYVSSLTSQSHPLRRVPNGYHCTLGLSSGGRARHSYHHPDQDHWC
T2 sequence (Q02410 whole entry): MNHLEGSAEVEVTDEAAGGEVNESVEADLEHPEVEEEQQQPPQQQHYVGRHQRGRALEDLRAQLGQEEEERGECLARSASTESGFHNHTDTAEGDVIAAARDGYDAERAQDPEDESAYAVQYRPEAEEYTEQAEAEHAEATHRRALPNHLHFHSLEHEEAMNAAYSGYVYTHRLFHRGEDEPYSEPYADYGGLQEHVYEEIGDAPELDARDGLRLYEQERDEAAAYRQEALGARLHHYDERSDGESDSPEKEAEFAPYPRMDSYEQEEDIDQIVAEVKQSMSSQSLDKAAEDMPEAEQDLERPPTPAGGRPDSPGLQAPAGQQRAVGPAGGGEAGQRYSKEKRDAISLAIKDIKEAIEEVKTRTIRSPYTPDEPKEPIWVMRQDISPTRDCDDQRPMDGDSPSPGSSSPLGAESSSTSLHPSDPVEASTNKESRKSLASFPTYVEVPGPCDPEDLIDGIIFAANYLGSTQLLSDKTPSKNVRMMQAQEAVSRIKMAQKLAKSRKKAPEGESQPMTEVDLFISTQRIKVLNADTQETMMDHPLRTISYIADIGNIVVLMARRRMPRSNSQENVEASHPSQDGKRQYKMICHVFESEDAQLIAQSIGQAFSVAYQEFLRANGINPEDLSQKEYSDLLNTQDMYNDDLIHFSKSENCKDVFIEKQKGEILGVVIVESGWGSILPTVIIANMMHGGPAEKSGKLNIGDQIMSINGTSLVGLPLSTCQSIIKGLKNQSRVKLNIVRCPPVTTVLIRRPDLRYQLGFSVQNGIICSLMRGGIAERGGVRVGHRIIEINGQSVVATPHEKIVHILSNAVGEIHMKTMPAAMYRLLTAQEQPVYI
Chain of Cytochrome P450 3A4 (P08684 whole entry): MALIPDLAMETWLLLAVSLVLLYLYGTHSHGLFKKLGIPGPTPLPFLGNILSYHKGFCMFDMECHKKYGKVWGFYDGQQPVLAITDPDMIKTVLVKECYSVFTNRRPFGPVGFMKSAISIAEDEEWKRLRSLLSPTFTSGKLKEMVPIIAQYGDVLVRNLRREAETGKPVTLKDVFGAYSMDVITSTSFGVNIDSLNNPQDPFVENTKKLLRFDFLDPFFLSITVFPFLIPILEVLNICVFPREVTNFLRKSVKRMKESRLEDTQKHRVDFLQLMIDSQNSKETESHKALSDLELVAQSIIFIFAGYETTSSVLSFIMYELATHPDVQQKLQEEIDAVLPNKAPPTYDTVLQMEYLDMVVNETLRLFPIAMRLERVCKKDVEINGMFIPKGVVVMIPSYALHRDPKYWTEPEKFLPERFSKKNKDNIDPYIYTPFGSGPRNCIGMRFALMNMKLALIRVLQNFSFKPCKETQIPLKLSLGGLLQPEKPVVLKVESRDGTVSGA
Chain of Glucose-6-phosphate 1-dehydrogenase (P11413 whole entry): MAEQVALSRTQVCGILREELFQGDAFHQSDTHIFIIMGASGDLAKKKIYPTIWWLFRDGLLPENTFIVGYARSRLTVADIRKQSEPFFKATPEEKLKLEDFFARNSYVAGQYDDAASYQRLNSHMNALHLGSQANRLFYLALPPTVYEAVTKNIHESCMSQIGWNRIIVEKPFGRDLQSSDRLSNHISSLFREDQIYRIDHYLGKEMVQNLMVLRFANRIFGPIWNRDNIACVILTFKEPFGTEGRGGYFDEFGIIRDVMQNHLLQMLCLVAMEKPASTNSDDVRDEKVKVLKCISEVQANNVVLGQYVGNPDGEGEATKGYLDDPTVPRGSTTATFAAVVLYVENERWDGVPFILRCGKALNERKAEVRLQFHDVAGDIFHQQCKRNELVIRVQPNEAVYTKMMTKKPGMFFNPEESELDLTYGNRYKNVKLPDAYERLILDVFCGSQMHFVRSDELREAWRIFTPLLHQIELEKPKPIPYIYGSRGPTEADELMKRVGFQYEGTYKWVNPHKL
Chain of DNA dC->dU-editing enzyme APOBEC-3A (P31941 whole entry): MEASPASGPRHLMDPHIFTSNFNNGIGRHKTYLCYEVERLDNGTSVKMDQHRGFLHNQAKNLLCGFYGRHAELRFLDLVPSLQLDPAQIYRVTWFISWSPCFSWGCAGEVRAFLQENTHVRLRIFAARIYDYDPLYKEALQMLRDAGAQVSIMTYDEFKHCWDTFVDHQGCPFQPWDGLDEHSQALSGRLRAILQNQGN

O=C(OCC(=O)N1CCN(c2ccccc2)CC1)c1cnc(Cl)c(Cl)c1
CC50 [1]: 34.2 µM (active)
IC50 [2]: 3.69 µM (active)

O=S(=O)(c1ccc(S(=O)(=O)N2CCCC2)cc1)N1CCCCCC1
IC50 [3]: > 50 µM (inactive)

CC(=O)Nc1ccc(OC(=O)c2cc3cc(Br)ccc3oc2=O)cc1
IC50 [4]: 2 µM (active)
IC50 [5]: > 50 µM (inactive)

N#Cc1cccc(NC(=O)C[n+]2c3n(c4ccc(C(F)(F)F)cc42)CCCCC3)c1
IC50 [6]: 1.97 µM (active)
IC50 [7]: 2.75 µM (active)

CN1C(=O)C(=C/C=C/Nc2ccccc2)C(=O)N(C)C1=S
IC50 [4]: 6.18 µM (active)
IC50 [5]: > 50 µM (inactive)

COc1ccc(N2C(=O)c3ccc(Cl)cc3C2=O)cc1
IC50 [8]: > 25 µM (inactive)

CCOC(=O)c1cc(-c2cccc([N+](=O)[O-])c2)nc2[nH]c(=O)[nH]c(=O)c12
IC50 [9]: 7.44 µM (active)

CCCCc1cc(=O)oc2c(CN(C)C)c(O)c(Cl)cc12
IC50 [9]: 27.3 µM (active)

Cc1ccc(-c2nnc(SCC(=O)c3ccc(O)c(O)c3)n2-c2ccccc2)cc1
IC50 [10]: > 100 µM (inactive)
IC50 [11]: > 100 µM (inactive)

O=c1c2ccccc2sn1-c1ncc([N+](=O)[O-])s1
IC50 [12]: 22.7 µM (active)
IC50 [13]: > 100 µM (inactive)

O=C(O)c1cc(NCc2ccc(F)cc2)ccc1N1CCOCC1
EC50 [14]: > 71.5 µM (inactive)

Cn1c(=O)cc(OCCCC(=O)N2CCCCC2)c2ccccc21
IC50 [15]: > 80 µM (inactive)

COc1ccc(C(=O)Nc2cc(Cl)ccc2C#N)cc1
IC50 [8]: > 25 µM (inactive)

CC(C)C[C@@H](N)c1nnc(SCC(=O)c2ccc(Cl)cc2)o1
IC50 [15]: > 80 µM (inactive)

CC1(C)CC(=O)C=C(Nc2ccccc2N)C1
EC50 [14]: > 71.5 µM (inactive)

COc1cc(C(=O)O/N=C2\C=CC(=O)C=C2C)cc(OC)c1OC
IC50 [16]: > 80 µM (inactive)
IC50 [3]: 10.3 µM (active)

C#CCCCCCCCCCCCC(O)CC(O)CO (configuration not stated) [AVOCADYNE]
AC50 [17]: 39.8 µM (inconclusive)

COc1ccc(N2C(=O)CC(Nc3cccc([N+](=O)[O-])c3)C2=O)cc1 (configuration not stated)
IC50 [3]: > 50 µM (inactive)

O=c1c2ccccc2sn1-c1ccccc1Cl
IC50 [8]: 1.97 µM (active)

CCC(=O)OCC(=O)C1(OC(=O)CC)C(C)CC2C3CCC4=CC(=O)C=CC4(C)C3(Cl)C(O)CC21C (configuration not stated)
AC50 [17]: 12.6 µM (inconclusive)

Cc1cc2n(n1)SC(Nc1cc(Cl)ccc1Cl)N2 (configuration not stated)
IC50 [12]: > 50 µM (inactive)
IC50 [13]: > 100 µM (inactive)

O=c1cc(-c2ccccc2)oc2cccc(O)c12 [5-HYDROXYFLAVONE]
AC50 [17]: 6.31 µM (inconclusive) and 20 µM (inconclusive)

N=C1/C(=C\c2coc3ccc(O)cc3c2=O)C(=O)N=C2SC=CN12
IC50 [9]: 57.6 µM (active)
IC50 [18]: 15.8 µM (active)
